Results on four compounds are retold here after patent US7414072B2, “Aryl 5-thio-β-d-glucopyranoside derivatives and therapeutic agents for diabetes containing the same” (Taisho Pharmaceutical Co., Ltd., priority 2002, dated 2008).

For `CCc1ccc(Cc2ccccc2O[C@@H]2S[C@H](COC(=O)OC)[C@@H](O)[C@H](O)[C@H]2O)cc1` [Compound 23, 2′-(4′-ethylbenzyl)phenyl 6-O-methoxycarbonyl 5-thio-β-D-glucopyranoside], the melting point was in the range of 102 to 104.5 °C.
For the compound `OCc1ccc(Cc2ccccc2O[C@@H]2S[C@H](CO)[C@@H](O)[C@H](O)[C@H]2O)cc1` [Compound 56, 2′-(4′-hydroxymethylbenzyl)phenyl 5-thio-β-D-glucopyranoside], the melting point was 184 to 186.5 °C.
Next, `OC[C@H]1S[C@@H](Oc2ccc(Cl)cc2Cc2ccc(-c3ccccc3)cc2)[C@H](O)[C@@H](O)[C@@H]1O` [Compound 67, 4′-chloro-2′-(4′-phenylbenzyl)phenyl 5-thio-β-D-glucopyranoside]: 187 to 195 °C.
With `Cc1ccc(Nc2ccccc2O[C@@H]2S[C@H](CO)[C@@H](O)[C@H](O)[C@H]2O)cc1` [Compound 34, 2′-(p-Toluidino)phenyl 5-thio-β-D-glucopyranoside] the figure was 152 to 153 °C.
